Test results as given in patent US11098055B2, “Ester ACC inhibitors and uses thereof” (Gilead Apollo, LLC, priority 2015, dated 2021).
pIC50: −log10 of the molar value. In brackets after ≈: the same amount, converted by molar mass.

Columns and labels:
fACC2 = fACC2 (UniProt Q00955); assay: In vitro ACC2 inhibition assay (ADP-Glo), fungal ACC2; type: biochemical
How it was run: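 ADP-Glo luminescent ADP detection with 5 nM ACC2, 20 μM ATP, 20 μM acetyl-CoA, 12 mM NaHCO3, 2 mM DTT, 5% DMSO; compound (30 μM-0.00051 μM, 11 points) preincubated 15 min, reaction 60 min at room temperature. Percent inhibition against DMSO and positive controls; IC50 by four-parameter nonlinear fit.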

[1] = system: C. parapsilosis ATCC 22019; assay: Anti-Fungal (Candida) Activity Assay, broth microtiter MIC; type: cell-based; conditions: Lodderomyces parapsilosis, ATCC22019, 48 h, 3 replicates, MIC read at 48 h
How it was run: (§1)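 Broth microdilution per CLSI M27-A3 in RPMI 1640 + MOPS, at a final inoculum of 2.5×10^3 CFU/mL. Compound DMSO stocks were diluted in water to a 128 μg/mL working solution. MIC was read visually against the growth control at 48 h.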

C. albicans ATCC 90028 = assay: as above; type: cell-based; conditions: ATCC90028, 48 h, 3 replicates, MIC read at 48 h
How it was run: as §1

C. krusei ATCC 6258 = assay: as above; type: cell-based, Candida krusei; conditions: Pichia kudriavzevii, ATCC6258, 48 h, 3 replicates, MIC read at 48 h
How it was run: as §1

fACC2, sequence (Q00955 whole entry): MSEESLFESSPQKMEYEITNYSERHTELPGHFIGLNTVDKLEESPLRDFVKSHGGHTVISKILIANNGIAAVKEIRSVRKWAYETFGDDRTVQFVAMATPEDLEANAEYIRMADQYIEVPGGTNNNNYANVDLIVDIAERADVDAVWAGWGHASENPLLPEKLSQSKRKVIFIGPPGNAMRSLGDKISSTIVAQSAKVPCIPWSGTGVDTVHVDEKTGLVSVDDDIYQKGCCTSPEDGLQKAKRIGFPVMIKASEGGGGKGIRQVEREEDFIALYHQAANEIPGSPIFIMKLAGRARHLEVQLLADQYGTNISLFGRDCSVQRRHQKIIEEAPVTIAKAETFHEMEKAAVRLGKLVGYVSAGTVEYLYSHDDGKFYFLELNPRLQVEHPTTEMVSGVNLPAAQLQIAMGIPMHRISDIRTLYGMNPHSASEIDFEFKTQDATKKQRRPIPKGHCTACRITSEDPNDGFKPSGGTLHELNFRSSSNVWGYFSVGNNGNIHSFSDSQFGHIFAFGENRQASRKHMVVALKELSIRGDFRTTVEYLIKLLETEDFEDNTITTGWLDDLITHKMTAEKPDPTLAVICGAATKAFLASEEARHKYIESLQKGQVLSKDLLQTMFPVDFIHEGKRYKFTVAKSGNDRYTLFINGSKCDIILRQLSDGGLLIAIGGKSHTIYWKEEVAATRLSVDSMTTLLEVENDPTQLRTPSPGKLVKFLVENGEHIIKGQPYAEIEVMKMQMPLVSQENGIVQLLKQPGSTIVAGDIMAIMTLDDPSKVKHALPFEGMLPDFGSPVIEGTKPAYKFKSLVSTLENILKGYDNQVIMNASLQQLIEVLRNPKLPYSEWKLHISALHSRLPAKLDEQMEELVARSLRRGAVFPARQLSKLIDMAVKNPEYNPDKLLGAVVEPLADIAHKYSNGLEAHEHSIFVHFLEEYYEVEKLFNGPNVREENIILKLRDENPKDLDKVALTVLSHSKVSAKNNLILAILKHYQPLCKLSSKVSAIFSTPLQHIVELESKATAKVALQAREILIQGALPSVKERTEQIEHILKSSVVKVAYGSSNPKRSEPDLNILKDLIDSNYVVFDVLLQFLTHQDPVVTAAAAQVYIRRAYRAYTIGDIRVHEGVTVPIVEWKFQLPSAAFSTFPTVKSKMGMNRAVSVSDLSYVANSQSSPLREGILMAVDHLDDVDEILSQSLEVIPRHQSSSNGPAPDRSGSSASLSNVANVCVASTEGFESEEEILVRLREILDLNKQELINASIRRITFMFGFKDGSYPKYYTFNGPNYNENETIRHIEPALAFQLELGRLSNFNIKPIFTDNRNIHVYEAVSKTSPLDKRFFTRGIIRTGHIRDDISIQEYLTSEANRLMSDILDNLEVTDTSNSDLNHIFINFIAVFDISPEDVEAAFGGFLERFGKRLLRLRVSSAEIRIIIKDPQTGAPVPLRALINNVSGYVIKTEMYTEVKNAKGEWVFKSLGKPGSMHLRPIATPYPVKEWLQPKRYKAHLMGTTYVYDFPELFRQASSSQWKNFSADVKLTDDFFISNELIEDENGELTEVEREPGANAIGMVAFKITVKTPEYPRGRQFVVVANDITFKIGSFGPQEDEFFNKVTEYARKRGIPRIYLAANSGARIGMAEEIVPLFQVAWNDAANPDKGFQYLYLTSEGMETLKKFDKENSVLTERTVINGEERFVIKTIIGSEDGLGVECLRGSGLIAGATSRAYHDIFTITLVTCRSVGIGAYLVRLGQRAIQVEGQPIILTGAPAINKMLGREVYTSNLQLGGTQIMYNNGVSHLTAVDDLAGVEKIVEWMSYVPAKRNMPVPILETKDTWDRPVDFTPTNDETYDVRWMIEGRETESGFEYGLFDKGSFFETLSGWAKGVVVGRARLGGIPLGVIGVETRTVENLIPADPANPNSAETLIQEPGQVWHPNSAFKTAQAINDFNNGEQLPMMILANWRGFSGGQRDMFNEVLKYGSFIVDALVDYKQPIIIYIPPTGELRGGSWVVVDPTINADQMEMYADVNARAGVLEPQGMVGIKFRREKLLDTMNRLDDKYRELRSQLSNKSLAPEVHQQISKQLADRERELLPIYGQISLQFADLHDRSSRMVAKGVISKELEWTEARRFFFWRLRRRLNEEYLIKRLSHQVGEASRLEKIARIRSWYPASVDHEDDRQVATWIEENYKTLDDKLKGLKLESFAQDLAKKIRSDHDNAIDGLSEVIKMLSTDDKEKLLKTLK

| Structure (SMILES) | pIC50 (fACC2; Table 2b (additional results)) | MIC ([1]; Table 3b (additional results)) | MIC (C. albicans ATCC 90028; Table 3b (additional results)) | MIC (C. krusei ATCC 6258; Table 3b (additional results)) | pIC50 (fACC2; Table 2a) | MIC ([1]; Table 3a) | MIC (C. albicans ATCC 90028; Table 3a) | MIC (C. krusei ATCC 6258; Table 3a) |
| --- | --- | --- | --- | --- | --- | --- | --- | --- |
| CCOC(=O)c1sc2c(c1C)c(=O)n([C@H](C)C(=O)NC(C)C)c(=O)n2C[C@H](O)c1cc(F)ccc1OC [Compound I-43, ethyl 1-((R)-2-(5-fluoro-2-methoxyphenyl)-2-hydroxyethyl)-3-((R)-1-(isopropylamino)-1-oxopropan-2-yl)-5-methyl-2,4-dioxo-1,2,3,4-tetrahydrothieno[2,3-d]pyrimidine-6-carboxylate] | 8.52 to 9.52 | 2.1 to 4 µg/mL (≈ 3.92 to 7.47 µM) | 2.1 to 4 µg/mL (≈ 3.92 to 7.47 µM) | 2.1 to 4 µg/mL (≈ 3.92 to 7.47 µM) |  |  |  |  |
| CCOC(=O)c1sc2c(c1C)c(=O)n(C(C)(C)C(=O)NC(C)C)c(=O)n2C[C@H](OC[C@H](C)C#N)c1cc(F)ccc1OC [Compound I-34, ethyl 1-((R)-2-((R)-2-cyanopropoxy)-2-(5-fluoro-2-methoxyphenyl)ethyl)-3-(1-(isopropylamino)-2-methyl-1-oxopropan-2-yl)-5-methyl-2,4-dioxo-1,2,3,4-tetrahydrothieno[2,3-d]pyrimidine-6-carboxylate] | 8.52 to 9.52 | 2.1 to 4 µg/mL (≈ 3.41 to 6.49 µM) | 0.25 to 1 µg/mL (≈ 0.405 to 1.62 µM) | 2.1 to 4 µg/mL (≈ 3.41 to 6.49 µM) |  |  |  |  |
| CCOC(=O)c1sc2c(c1C)c(=O)n(C(C)(C)C(N)=O)c(=O)n2C[C@H](OCCO)c1cc(F)ccc1OC [Compound I-17, (R)-ethyl 3-(1-amino-2-methyl-1-oxopropan-2-yl)-1-(2-(5-fluoro-2-methoxyphenyl)-2-(2-hydroxyethoxy)ethyl)-5-methyl-2,4-dioxo-1,2,3,4-tetrahydro-thieno[2,3-d]pyrimidine-6-carboxylate] | 8.52 to 9.52 | 1.1 to 2 µg/mL (≈ 1.99 to 3.63 µM) | 2.1 to 4 µg/mL (≈ 3.81 to 7.25 µM) | 2.1 to 4 µg/mL (≈ 3.81 to 7.25 µM) | 8.52 to 9.22 | > 4.1 µg/mL | > 4.1 µg/mL | > 4.1 µg/mL |
| CCOC(=O)c1sc2c(c1C)c(=O)n(C(C)(C)C(N)=O)c(=O)n2C[C@H](OCCC#N)c1cc(F)ccc1OC [Compound I-14, (R)-ethyl 3-(1-amino-2-methyl-1-oxopropan-2-yl)-1-(2-(2-cyanoethoxy)-2-(5-fluoro-2-methoxyphenyl)ethyl)-5-methyl-2,4-dioxo-1,2,3,4-tetrahydro-thieno[2,3-d]pyrimidine-6-carboxylate] | 8.52 to 9.52 | 1.1 to 2 µg/mL (≈ 1.96 to 3.57 µM) | 2.1 to 4 µg/mL (≈ 3.75 to 7.14 µM) | 2.1 to 4 µg/mL (≈ 3.75 to 7.14 µM) | 8.52 to 9.22 | > 4.1 µg/mL | > 4.1 µg/mL | > 4.1 µg/mL |
